Target: His-Tagged hOGA (human O-GlcNAcase) (Homo sapiens (Human), UniProt O60502)
Assay: Human O-GlcNAcase enzyme inhibition assay;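 note: reactions contained 20 nM His-tagged hOGA enzyme with 10 µM FL-GlcNAc substrate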
Assay type: biochemical
Details: OGA enzyme inhibition assay; FL-GlcNAc substrate, pH 6.5; activity classes defined in μM; read-out: OGA IC50
Description: Then, 20 nM of His-Tagged hOGA and 10 μM of FL-GlcNAc (Fluorescein mono-beta-D-(2-deoxy-2-N-acetyl) glucopyranoside; Marker Gene Technologies Inc, M1485) were added to the 384-well plate for a final volume of 20 μl.

His-Tagged hOGA (human O-GlcNAcase), sequence (O60502 whole entry): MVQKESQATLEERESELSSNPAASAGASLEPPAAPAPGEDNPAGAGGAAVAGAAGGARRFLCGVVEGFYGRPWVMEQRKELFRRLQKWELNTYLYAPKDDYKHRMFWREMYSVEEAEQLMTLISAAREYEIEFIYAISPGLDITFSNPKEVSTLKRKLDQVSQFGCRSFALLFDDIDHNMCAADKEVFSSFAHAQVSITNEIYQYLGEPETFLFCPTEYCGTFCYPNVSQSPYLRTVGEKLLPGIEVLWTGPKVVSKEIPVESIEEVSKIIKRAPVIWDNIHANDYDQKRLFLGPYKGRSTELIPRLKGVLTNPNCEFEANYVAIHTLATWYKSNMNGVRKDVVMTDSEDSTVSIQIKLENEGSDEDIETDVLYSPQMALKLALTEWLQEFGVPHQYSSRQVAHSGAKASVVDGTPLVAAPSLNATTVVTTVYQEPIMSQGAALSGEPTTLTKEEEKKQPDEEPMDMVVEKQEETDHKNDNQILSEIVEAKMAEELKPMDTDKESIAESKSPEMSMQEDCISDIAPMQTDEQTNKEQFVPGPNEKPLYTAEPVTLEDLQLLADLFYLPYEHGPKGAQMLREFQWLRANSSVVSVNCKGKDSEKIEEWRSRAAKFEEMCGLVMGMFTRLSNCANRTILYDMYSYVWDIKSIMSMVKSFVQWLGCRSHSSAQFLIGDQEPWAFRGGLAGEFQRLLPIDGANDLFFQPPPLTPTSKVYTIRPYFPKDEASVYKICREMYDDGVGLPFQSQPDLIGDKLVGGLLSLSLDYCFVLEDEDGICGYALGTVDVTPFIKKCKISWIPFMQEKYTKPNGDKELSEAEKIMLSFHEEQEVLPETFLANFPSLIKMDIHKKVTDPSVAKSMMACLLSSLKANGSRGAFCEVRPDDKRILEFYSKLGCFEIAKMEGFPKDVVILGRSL

Row | Compound | IC50 [µM]
1 | CC(=O)N1CCc2nc(N3CCN(C(C)c4ccc5nccnc5c4)CC3)ncc2C1 (racemic) [Example 6, 1-(2-(4-(1-(quinoxalin-6-yl)ethyl)piperazin-1-yl)-7,8-dihydropyrido[4,3-d]pyrimidin-6(5H)-yl)ethan-1-one] | 0.05 to 0.2
2 | CC(c1ccc2nccnc2c1)N1CCN(c2ncc3c(n2)CCNC3)CC1 (racemic) [Example 8, 2-(4-(1-(quinoxalin-6-yl)ethyl)piperazin-1-yl)-5,6,7,8-tetrahydropyrido [4,3-d] pyrimidine] | < 0.05
3 | CC(c1ccc2nccnc2c1)N1CCN(c2ncc3c(n2)CCN(C)C3)CC1 (racemic) [Example 9, 6-methyl-2-(4-(1-(quinoxalin-6-yl)ethyl)piperazin-1-yl)-5,6,7,8-tetrahydropyrido[4,3-d]pyrimidine] | < 0.05
4 | CC(=O)N1CCc2nc(N3CCN(C(C)c4ccc5c(c4)OCC5)CC3)sc2C1 (racemic) [Example 10, 1-(2-(4-(1-(2,3-dihydrobenzofuran-6-yl)ethyl)piperazin-1-yl)-6,7-dihydrothiazolo[5,4-c]pyridin-5(4H)-yl)ethan-1-one] | < 0.05
5 | CC(=O)N1CCc2nc(N3CCN(C(C)c4ccc5nccnc5c4)CC3)sc2C1 (racemic) [Example 11, 1-(2-(4-(1-(quinoxalin-6-yl)ethyl)piperazin-1-yl)-6,7-dihydrothiazolo[5,4-c]pyridin-5(4H)-yl)ethan-1-one] | 0.05 to 0.2
6 | CC(c1ccc2c(c1)OCC2)N1CCN(c2nc3c(s2)C(=O)N(C)CC3)CC1 (racemic) [Example 13, 2-(4-(1-(2,3-dihydrobenzofuran-6-yl)ethyl)piperazin-1-yl)-5-methyl-6,7-dihydrothiazolo[5,4-c]pyridin-4(5H)-one] | < 0.05
7 | CC(c1ccc2nccnc2c1)N1CCN(c2nc3c(s2)C(=O)N(C)CC3)CC1 (racemic) [Example 14, 5-methyl-2-(4-(1-(quinoxalin-6-yl)ethyl)piperazin-1-yl)-6,7-dihydrothiazolo[5,4-c]pyridin-4(5H)-one] | 0.2 to 1
8 | CC(c1ccc2c(c1)OCC2)N1CCN(c2nc3c(s2)CNCC3)CC1 (racemic) [Example 15, 2-(4-(1-(2,3-dihydrobenzofuran-6-yl)ethyl)piperazin-1-yl)-4,5,6,7-tetrahydrothiazolo[5,4-c]pyridine] | < 0.05
9 | CC(c1ccc2c(c1)OCC2)N1CCN(c2nc3c(s2)CN(C)CC3)CC1 (racemic) [Example 16, 2-(4-(1-(2,3-dihydrobenzofuran-6-yl)ethyl)piperazin-1-yl)-5-methyl-4,5,6,7-tetrahydrothiazolo[5,4-c]pyridine] | < 0.05
10 | CC(c1ccc2nccnc2c1)N1CCN(c2nc3c(s2)CNCC3)CC1 (racemic) [Example 19, 2-(4-(1-(quinoxalin-6-yl)ethyl)piperazin-1-yl)-4,5,6,7-tetrahydrothiazolo[5,4-c]pyridine] | 0.05 to 0.2
11 | CC(c1ccc2nccnc2c1)N1CCN(c2nc3c(s2)CN(C)CC3)CC1 (racemic) [Example 20, 5-Methyl-2-(4-(1-(quinoxalin-6-yl)ethyl)piperazin-1-yl)-4,5,6,7-tetrahydrothiazolo[5,4-c]pyridine] | 0.05 to 0.2
12 | CC(c1ccc2nccnc2c1)N1CCN(c2n[nH]c(=O)s2)CC1 (racemic) [Example 21, 5-(4-(1-(quinoxalin-6-yl)ethyl)piperazin-1-yl)-1,3,4-thiadiazol-2(3H)-one] | 0.05 to 0.2
13 | CC(c1ccc2nccnc2c1)N1CCC(c2n[nH]c(=O)o2)CC1 (racemic) [Example 22, 5-(1-(1-(quinoxalin-6-yl)ethyl)piperidin-4-yl)-1,3,4-oxadiazol-2(3H)-one] | 0.2 to 1
14 | Cc1nnc(C2CCN(C(C)c3ccc4c(c3)OCC4)CC2)o1 (racemic) [Example 23, 2-(1-(1-(2,3-dihydrobenzofuran-6-yl)ethyl)piperidin-4-yl)-5-methyl-1,3,4-oxadiazole] | < 0.05
15 | Cc1nnc(C2CCN(C(C)c3ccc4nccnc4c3)CC2)o1 (racemic) [Example 24, 2-methyl-5-(1-(1-(quinoxalin-6-yl)ethyl)piperidin-4-yl)-1,3,4-oxadiazole] | 0.2 to 1
16 | CC(=O)Nc1cnn(C2CCN(C(C)c3ccc4c(c3)OCC4)CC2)c1 (racemic) [Example 25, N-(1-(1-(1-(2,3-dihydrobenzofuran-6-yl)ethyl)piperidin-4-yl)-1H-pyrazol-4-yl)acetamide] | 0.05 to 0.2
17 | CC(=O)Nc1cnn(C2CCN(C(C)c3ccc4nccnc4c3)CC2)c1 (racemic) [Example 27, N-(1-(1-(1-(quinoxalin-6-yl)ethyl)piperidin-4-yl)-1H-pyrazol-4-yl)acetamide] | 1 to 10
18 | CC(c1ccc2c(c1)OCC2)N1CCC(n2cc(CO)cn2)CC1 (racemic) [Example 28, (1-(1-(1-(2,3-dihydrobenzofuran-6-yl)ethyl)piperidin-4-yl)-1H-pyrazol-4-yl) methanol] | 0.2 to 1
19 | CC(c1ccc2c(c1)OCC2)N1CCC(n2cc(C(F)(F)F)cn2)CC1 (racemic) [Example 29, 1-(1-(2,3-Dihydrobenzofuran-6-yl)ethyl)-4-(4-(trifluoromethyl)-1H-pyrazol-1-yl) piperidine] | 0.2 to 1
20 | CC(c1ccc2c(c1)OCC2)N1CCC(n2cc(F)cn2)CC1 (racemic) [Example 30, 1-(1-(2,3-dihydrobenzofuran-6-yl)ethyl)-4-(4-fluoro-1H-pyrazol-1-yl)piperidine] | 0.2 to 1

Row | Compound | IC50 [µM]
21 | CCOC(=O)c1cnn(C2CCN(C(C)c3ccc4c(c3)OCC4)CC2)c1 (racemic) [Example 32, Ethyl 1-(1-(1-(2,3-dihydrobenzofuran-6-yl)ethyl)piperidin-4-yl)-1H-pyrazole-4-carboxylate] | 0.05 to 0.2
22 | CC(c1ccc2c(c1)OCC2)N1CCC(n2cc(S(C)(=O)=O)cn2)CC1 (racemic) [Example 34, 1-(1-(2,3-dihydrobenzofuran-6-yl)ethyl)-4-(4-(methylsulfonyl)-1H-pyrazol-1-yl)piperidine] | 0.2 to 1
23 | CC(O)c1ccc(N2CCN(C(C)c3ccc4c(c3)OCC4)CC2)nn1 (racemic) [Example 35, 1-(6-(4-(1-(2,3-dihydrobenzofuran-6-yl)ethyl)piperazin-1-yl)pyridazin-3-yl)ethan-1-ol] | < 0.05
24 | CC(O)c1ccc(N2CCN(C(C)c3ccc4nccnc4c3)CC2)nn1 (racemic) [Example 36, 1-(6-(4-(1-(quinoxalin-6-yl)ethyl)piperazin-1-yl)pyridazin-3-yl)ethan-1-ol] | 0.2 to 1
25 | CC(c1ccc2nccnc2c1)N1CCN(c2nnc(CO)s2)CC1 (racemic) [Example 37, (5-(4-(1-(quinoxalin-6-yl)ethyl)piperazin-1-yl)-1,3,4-thiadiazol-2-yl)methanol] | 0.2 to 1
26 | CC(c1ccc2c(c1)OCC2)N1CCN(c2ccc(C(F)(F)F)nn2)CC1 (racemic) [Example 40, 3-(4-(1-(2,3-dihydrobenzofuran-6-yl)ethyl)piperazin-1-yl)-6-(trifluoromethyl)pyridazine] | < 0.05
27 | CC(c1ccc2nccnc2c1)N1CCN(c2ccc(F)nn2)CC1 (racemic) [Example 41, 6-(1-(4-(6-Fluoropyridazin-3-yl)piperazin-1-yl)ethyl)quinoxaline] | 0.2 to 1
28 | CC(c1ccc2nccnc2c1)N1CCN(c2ccc(C(F)(F)F)nn2)CC1 (racemic) [Example 42, 6-(1-(4-(6-(trifluoromethyl)pyridazin-3-yl)piperazin-1-yl)ethyl)quinoxaline] | 0.2 to 1
29 | CC(c1ccc2nccnc2c1)N1CCN(c2ccc(I)nn2)CC1 (racemic) [Example 43] | 0.2 to 1
30 | Cc1ccc(N2CCN(C(C)c3ccc4nccnc4c3)CC2)nn1 (racemic) [Example 44, 6-(1-(4-(6-Methylpyridazin-3-yl)piperazin-1-yl)ethyl)quinoxaline] | 0.2 to 1
31 | CC(c1ccc2c(c1)OCC2)N1CCN(c2ccc(S(C)(=O)=O)nn2)CC1 (racemic) [Example 45, 3-(4-(1-(2,3-dihydrobenzofuran-6-yl)ethyl)piperazin-1-yl)-6-(methylsulfonyl)pyridazine] | < 0.05
32 | CC(O)c1ccc(N2CCN(C(C)c3ccc4c(c3)OCC4)CC2)nc1 (racemic) [Example 47, 1-(6-(4-(1-(2,3-dihydrobenzofuran-6-yl)ethyl)piperazin-1-yl)pyridin-3-yl)ethan-1-ol] | < 0.05
33 | CC(c1ccc2c(c1)OCC2)N1CCN(c2ccc(C(C)(C)O)cn2)CC1 (racemic) [Example 48, 2-(6-(4-(1-(2,3-dihydrobenzofuran-6-yl)ethyl)piperazin-1-yl)pyridin-3-yl)propan-2-ol] | < 0.05
34 | CC(C)C(O)c1ccc(N2CCN(C(C)c3ccc4c(c3)OCC4)CC2)nc1 (racemic) [Example 49, 1-(6-(4-(1-(2,3-dihydrobenzofuran-6-yl)ethyl)piperazin-1-yl)pyridin-3-yl)-2-methylpropan-1-ol] | < 0.05
35 | CC(c1ccc2c(c1)OCC2)N1CCN(c2ccc(C(O)C(F)(F)F)cn2)CC1 (racemic) [Example 50, 1-(6-(4-(1-(2,3-dihydrobenzofuran-6-yl)ethyl)piperazin-1-yl)pyridin-3-yl)-2,2,2-trifluoroethan-1-ol] | < 0.05
36 | CC(c1ccc2nccnc2c1)N1CCN(c2ccc(C(C)(C)O)cn2)CC1 (racemic) [Example 51, 2-(6-(4-(1-(quinoxalin-6-yl)ethyl)piperazin-1-yl)pyridin-3-yl) propan-2-ol] | 0.05 to 0.2
37 | CC(O)c1ccc(N2CCN(C(C)c3ccc4nccnc4c3)CC2)nc1 (racemic) [Example 52, 1-(6-(4-(1-(quinoxalin-6-yl)ethyl)piperazin-1-yl)pyridin-3-yl)ethan-1-ol] | 0.2 to 1
38 | COc1ccc(N2CCN(C(C)c3ccc4nccnc4c3)CC2)cn1 (racemic) [Example 53, 6-(1-(4-(6-methoxypyridin-3-yl)piperazin-1-yl)ethyl)quinoxaline] | 0.2 to 1
39 | CC(c1ccc2nccnc2c1)N1CCN(c2ccc(=O)[nH]c2)CC1 (racemic) [Example 54, 5-(4-(1-(quinoxalin-6-yl)ethyl)piperazin-1-yl)pyridin-2(1H)-one] | 0.2 to 1
40 | CC(C)C(O)c1ccc(N2CCN(C(C)c3ccc4nccnc4c3)CC2)nc1 (racemic) [Example 55, 2-methyl-1-(6-(4-(1-(quinoxalin-6-yl)ethyl)piperazin-1-yl)pyridin-3-yl)propan-1-ol] | 0.2 to 1

From patent publication US10556902B2 (Asceneuron SA, priority 2016, dated 2020)
